From patent publication US8858985B2, “Films comprising a liquid-absorbant inner layer, an antimicrobial material and an impermeable outer layer” (E I du Pont de Nemours and Company, priority 2004, dated 2014)

Tests used:
L. monocytogenes = assay: film on lawn assay; type: cell-based
Experimental: Films of Example 1 and Example 2 at 150μ in thickness were cut into 15 mm by 15 mm samples placed onto aluminum foil, and exposed to UV light in a laminar flow hood for 4 to 7 minutes. The samples were then transferred from foil to various solutions as described in Table 6 to soak for 12 to 24 hours at room temperature.
(§1) For each antimicrobial solution concentration, a spot on lawn assay procedure was first conducted on agar plates to assess the efficacy of the solution to colony control. In this procedure, the TSA agar plates were inoculated with L. monocytogenes 15313 at a level of 10E+08 cfu/ml through an Autoplate 4000 model from Spiral Biotech. A volumetric pipette pump was then used to place three 10-μl spots of an antimicrobial solution onto appropriate regions of the test plate. Separately, another volumetric pipette pump was used to place 10 μl of a control solution (i.e., the solution in which the antimicrobial agent is dissolved). Three such agar plates were prepared for each concentration of antimicrobial solution. After spot placement, the plates were allowed to stand undisturbed for 10 to 30 minutes in a laminar flow hood before incubation at 37° C. for at least 24 hours. The resultant zones of inhibition were measured using a dial caliper (Brown and Sharpe, accuracy to 0.02 mm) with each zone measured twice on a 90° axis. Three such spots (for the antimicrobial treated solution) were so measured per plate, with three plates per condition to provide 18 such measurements. […] In the film on lawn procedure, 15 mm×15 mm films of example 1 and 2 were placed in freshly made up solutions for 12 to 24 hours at room temperature and then removed with a pair of flame-sterilized ocular forceps, allowed to drip dry, then placed for 60 seconds on a sterile Petri-dish before positioning on agar plates in a film on lawn assay procedure. The TSA agar plates had been prepared by inoculating with L. monocytogenes at a level of 10E+08 cfu/ml through an Autoplate 4000 model from Spiral Biotech. Two such films were so placed on the prepared TSA agar plates. A third 15 mm×15 mm film was soaked under the same conditions in a control solution (the solution without the antimicrobial agent) and placed in a third region of the plate. Three such plates were prepared in this manner for each concentration of antimicrobial agent. After film placement, the plates were allowed to stand undisturbed for 10 to 30 minutes in a laminar flow hood before incubation at 37° C. for at least 24 hours. The resultant zones of inhibition were measured using a dial caliper (Brown and Sharpe, accuracy to 0.02 mm) with each zone measured twice on a 90° axis. Two such films (for the antimicrobial treated film) were so measured per plate, with three plates per condition to provide 12 such measurements. No zones of inhibition were recorded for the control films.

L. monocytogenes 15313 = assay: spot on lawn assay; type: cell-based; conditions: 10-μl spots
Text: as §1, with “Two such films were so placed on the prepared TSA agar plates. A third 15 mm×15 mm film was soaked under the same conditions in a control solution (the solution without the antimicrobial agent) and placed in a third region of the plate. Three such plates were prepared in this manner for each concentration of antimicrobial agent. After film placement, the plates were allowed to stand undisturbed for 10 to 30 minutes in a laminar flow hood before incubation at 37° C. for at least 24 hours.” left out

Row | Compound | Group averages of Inhibition Zones (mm), Film on Lawn Assay Example 1 (L. monocytogenes; film of Example 1 soaked in 5 wt % in Water (95)) | Group averages of Inhibition Zones (mm), Film on Lawn Assay Example 1 (L. monocytogenes; film of Example 1 soaked in 7.5 wt % in Water (92.5)) [mm] | Group averages of Inhibition Zones (mm), Film on Lawn Assay Example 1 (L. monocytogenes; film of Example 1 soaked in 10 wt % in Water (90)) [mm] | Group averages of Inhibition Zones (mm), Film on Lawn Assay Example 2 (L. monocytogenes; film of Example 2 soaked in 5 wt % in Water (95)) [mm] | Group averages of Inhibition Zones (mm), Film on Lawn Assay Example 2 (L. monocytogenes; film of Example 2 soaked in 7.5 wt % in Water (92.5)) [mm] | Group averages of Inhibition Zones (mm), Film on Lawn Assay Example 2 (L. monocytogenes; film of Example 2 soaked in 10 wt % in Water (90)) [mm] | Group averages of Inhibition Zones (mm), Spot on Lawn Assay (L. monocytogenes 15313; 0.75 wt % in Ethanol/Water (36/63.25)) [mm] | Group averages of Inhibition Zones (mm), Spot on Lawn Assay (L. monocytogenes 15313; 1.5 wt % in Ethanol/Water (36/62.5)) [mm] | Group averages of Inhibition Zones (mm), Spot on Lawn Assay (L. monocytogenes 15313; 3.0 wt % in Ethanol/Water (36/61)) [mm] | Group averages of Inhibition Zones (mm), Film on Lawn Assay Example 1 (L. monocytogenes; 15 mm x 15 mm film of Example 1 soaked 12-24 h in 0.75 wt % in Ethanol/Water (36/63.25)) [mm] | Group averages of Inhibition Zones (mm), Film on Lawn Assay Example 2 (L. monocytogenes; 15 mm x 15 mm film of Example 2 soaked 12-24 h in 0.75 wt % in Ethanol/Water (36/63.25)) [mm] | Group averages of Inhibition Zones (mm), Film on Lawn Assay Example 1 (L. monocytogenes; film of Example 1 soaked in 1.5 wt % in Ethanol/Water (36/62.5)) [mm] | Group averages of Inhibition Zones (mm), Film on Lawn Assay Example 1 (L. monocytogenes; film of Example 1 soaked in 3.0 wt % in Ethanol/Water (36/61)) [mm] | Group averages of Inhibition Zones (mm), Film on Lawn Assay Example 2 (L. monocytogenes; film of Example 2 soaked in 1.5 wt % in Ethanol/Water (36/62.5)) [mm] | Group averages of Inhibition Zones (mm), Film on Lawn Assay Example 2 (L. monocytogenes; film of Example 2 soaked in 3.0 wt % in Ethanol/Water (36/61)) [mm]
1 | O=C(O)CC(O)(CC(=O)O)C(=O)O [Citric acid] | Slight^3 | 19.21 ± 0.25 | 21.00 ± 0.63 | 0 | 0 | 0 | – | – | – | – | – | – | – | – | –
2 | O=C(O)c1ccccc1 [Benzoic acid] | – | – | – | – | – | – | 7.31 ± 0.91 | 7.70 ± 0.61 | 8.64 ± 0.76 | 21.55 ± 0.77 | 23.49 ± 1.47 | 25.92 ± 1.02 | 25.76 ± 0.41 | 27.85 ± 0.96 | 27.6 ± 2.03
